Laboratory results: patent US12201641B2, “Compositions comprising Withania Somnifera extract for mammalian consumption” (SpecNova LLC, priority 2021, dated 2025)

Assay: in vitro
Settings: human, Caco-2, pH 7.4, Caco-2 Permeability (Papp) (A→B); for Papp A→B at 120 min, 1 μg/mL: compound alone, 1 μg/mL in HBSS buffer, pH 7.4, 120 min
Protocol: The Caco-2 permeability of two Withania somnifera extracts prepared by the claimed method of the present application (EXT001 and EXT002) and one Withania somnifera extract prepared using an alternative method (ALT001) were measured for comparison. Caco-2 cells (ATCC HTB-37) were grown on 24 well Transwell plates for 21 days. as per internal protocol number MET-TDDC-011. On the day of experiment the transepithelial electrical resistance (TEER) was measured across the monolayer and wells with TEER greater than 200 ohm*cm^2 were used for the permeability assessment. Incubation buffer consisted of Hanks balanced salt solution (HBSS) without CaCl2 and MgCl2, adjusted to pH 7.4, for both the donor, and the receiver. […] Lucifer yellow was used as zero permeability reference to check membrane integrity.
The compound solutions were prepared in HBSS buffer (pH 7.4) at a concentration of 1 μg/mL for permeability assessment. 5 mg each of Withania somnifera extracts EXT002 and EXT001 were added to 5 mL of HBSS buffer and vortexed for 2 hours followed by filtration through 0.22 μm syringe filter. These solutions were used for permeability determination. […] The methanolic extract was filtered through 0.22 μm filter. This extract was concentrated to 1 mL by passing nitrogen gas at 40° C. for 1 hr. Then 20 μL of this extract was spiked in 2 mL of HBSS buffer and filtered through 0.22 μm filter. This solution was used for the permeability study.
The permeability assay was performed in triplicate for each compound or product. Prior to the permeability assay, the transwells were washed with in pre-warmed HBSS buffer. The medium in the insert was aspirated and then the transwells were transferred to a 24-well plate with blank HBSS buffer (600 μL) in each well, and compound solution (102.5 μL, of which 2.5 μL was sampled immediately as the zero-minute donor) was added to each insert. Receiver samples (25 μL) were collected at 60, and 120 minutes, and replaced with an equal volume of fresh pre-warmed receiver buffer (at 60 minutes). The donor side was sampled (2.5 μL) at 0 and 120 minutes. The assay was conducted at 37° C. in a humidified CO2 incubator.
For analysis, any necessary dilutions of samples were performed with HBSS, pH 7.4. 25 μL of sample was mixed with 100 μL of acetonitrile with 25 ng/mL of mitragynine internal standard (IS), and then mixed and filtered through 0.4 μm filter plate to by centrifugation for 5 minutes at 2,000 rpm to a polypropylene 96-well plate for analysis. The samples were assayed by LC-MS/MS method.
The apparent permeability coefficient (Papp) and recovery were calculated as follows: […]
Where, VA is the volume of the acceptor compartment; A is the diffusional area of the membrane (0.33 cm^2); T is the length of study; [Drug]ini,donor is the donor compound amount at 0 minute; [Drug]acceptor is the acceptor compound amount at 120 minute. The compounds with permeability above 5×10^−6 cm/s will be considered high permeability compounds while those with permeability below 5×10^−6 cm/s will be considered low permeability compounds.

SMILES | Papp A→B at 120 min, 5 μg/mL [×10⁻⁶ cm/s] | Papp A→B at 120 min, 1 μg/mL [×10⁻⁶ cm/s]
NS(=O)(=O)c1cc2c(cc1Cl)N=CNS2(=O)=O [Chlorothiazide, reference compound] | 4.2 ± 1.79 | –
CC1=C(CO)C(=O)O[C@@H]([C@@H](C)[C@H]2CC[C@H]3[C@@H]4C[C@H]5O[C@]56[C@@H](O)C=CC(=O)[C@]6(C)[C@H]4CC[C@]23C)C1 [Withaferin A, withaferin A] | – | 4.55 ± 0.81
CC1=C(C)C(=O)O[C@@H]([C@](C)(O)[C@H]2CC[C@H]3[C@@H]4[C@@H]5O[C@@H]5[C@@]5(O)CC=CC(=O)[C@]5(C)[C@H]4CC[C@]23C)C1 [Withanolide A, withanolide A] | – | 3.23 ± 0.5
CC1=C(C)C(=O)O[C@@H]([C@@H](C)[C@H]2CC[C@H]3[C@@H]4CC=C5C[C@@H](O[C@@H]6O[C@H](CO[C@@H]7O[C@H](CO)[C@@H](O)[C@H](O)[C@H]7O)[C@@H](O)[C@H](O)[C@H]6O)C[C@H](O)[C@]5(C)[C@H]4CC[C@]23C)C1 [Withanolside V, withanoside V] | – | 4.03 ± 0.87
CC1=C(CO)C(=O)O[C@@H]([C@@H](C)[C@H]2CC[C@H]3[C@@H]4CC=C5C[C@@H](O[C@@H]6O[C@H](CO[C@@H]7O[C@H](CO)[C@@H](O)[C@H](O)[C@H]7O)[C@@H](O)[C@H](O)[C@H]6O)C[C@H](O)[C@]5(C)[C@H]4CC[C@]23C)C1 [Withanoside IV, withanoside IV] | – | 5.42 ± 0.69
